Results as given in patent US10131652B2, “Pyrimidinyloxy benzene derivatives as herbicides” (E. I. DU PONT DE NEMOURS AND COMPANY, priority 2014, dated 2018).
Read-outs that look alike come from different tables or passages of the source.

What was measured:
Type in all cases: in vivo
[1] = tested on: giant foxtail (Setaria faberii); test: Test B pre-/postemergence plant response; conditions: Setaria faberi, 240 h, read-out: Plant response rating, Foxtail, Giant; for pest or weed control at 125 g/ha: 125 g ai/ha; for pest or weed control at 500 g/ha: 500 g ai/ha; for pest or weed control at 500 g/ha / pest or weed control at 1000 g/ha: 0 to 100 scale (0 no effect, 100 complete control); for pest or weed control at 1000 g/ha: 1000 g ai/ha
In short: (§1)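 Seeds in loam–sand blend given preemergence soil spray; separately, plants at one- to two-leaf stage (2–10 cm) sprayed postemergence, compounds in non-phytotoxic solvent with surfactant. Injury rated visually versus untreated controls after ~10 days in greenhouse, 0 (no effect) to 100 (complete control).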

[2] = tested on: barnyardgrass (Echinochloa crus-galli); test: Test B pre-/postemergence plant response; conditions: Echinochloa crus-galli, 240 h, read-out: Plant response rating, Barnyardgrass; for pest or weed control at 125 g/ha: 125 g ai/ha; for pest or weed control at 500 g/ha: 500 g ai/ha; for pest or weed control at 500 g/ha / pest or weed control at 1000 g/ha: 0 to 100 scale (0 no effect, 100 complete control); for pest or weed control at 1000 g/ha: 1000 g ai/ha
In short: as §1

[3] = tested on: wheat (Triticum aestivum); test: Test B pre-/postemergence plant response; conditions: Triticum aestivum, 240 h, read-out: Plant response rating, Wheat; for plant injury at 125 g/ha: 125 g ai/ha; for plant injury at 500 g/ha: 500 g ai/ha; for plant injury at 500 g/ha / plant injury at 1000 g/ha: 0 to 100 scale (0 no effect, 100 complete control); for plant injury at 1000 g/ha: 1000 g ai/ha
In short: as §1

[4] = tested on: corn (Zea mays); test: Test B pre-/postemergence plant response; conditions: Zea mays, 240 h; for Corn plant response rating (crop injury, 0 = no effect, 100 = complete kill) at 125 g/ha: 125 g ai/ha; for Corn plant response rating (crop injury, 0 = no effect, 100 = complete kill) at 500 g/ha: 500 g ai/ha; for Corn plant response rating (crop injury, 0 = no effect, 100 = complete kill) at 500 g/ha / Corn plant response rating (crop injury, 0 = no effect, 100 = complete kill) at 1000 g/ha: 0 to 100 scale (0 no effect, 100 complete control); for Corn plant response rating (crop injury, 0 = no effect, 100 = complete kill) at 1000 g/ha: 1000 g ai/ha
In short: as §1

[5] = tested on: pigweed (Amaranthus retroflexus); test: Test B pre-/postemergence plant response; conditions: Amaranthus retroflexus, 240 h, read-out: Plant response rating, Pigweed; for pest or weed control at 125 g/ha: 125 g ai/ha; for pest or weed control at 500 g/ha: 500 g ai/ha; for pest or weed control at 500 g/ha / pest or weed control at 1000 g/ha: 0 to 100 scale (0 no effect, 100 complete control); for pest or weed control at 1000 g/ha: 1000 g ai/ha
In short: as §1

[6] = tested on: ducksalad (Heteranthera limosa); test: Test C flooded paddy test plant response; conditions: Heteranthera limosa; Flood, 250 g ai/ha; scale of 0 to 100 where 0 is no effect and 100 is complete control; 13 to 15 days; read-out: Ducksalad plant response rating
In short: (§2)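 Scale 0 (no effect) to 100 (complete control), assigned visually versus controls after 13–15 d greenhouse. Application: directly to paddy water, 3 cm flood depth kept constant, 2-leaf stage.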

[7] = tested on: barnyardgrass (Echinochloa crus-galli); test: Test C flooded paddy test plant response; conditions: Echinochloa crus-galli; Flood, 250 g ai/ha; scale of 0 to 100 where 0 is no effect and 100 is complete control; 13 to 15 days; read-out: Barnyardgrass plant response rating
In short: as §2

[8] = tested on: small-flower umbrella sedge (Cyperus difformis); test: Test C flooded paddy test plant response; conditions: Cyperus difformis; Flood, 250 g ai/ha; scale of 0 to 100 where 0 is no effect and 100 is complete control; 13 to 15 days; read-out: Sedge, Umbrella plant response rating
In short: as §2

[9] = tested on: rice (Oryza sativa); test: Test C flooded paddy test plant response; conditions: Oryza sativa; Flood, 250 g ai/ha; scale of 0 to 100 where 0 is no effect and 100 is complete control; 13 to 15 days; read-out: Rice plant response rating
In short: as §2

[10] = post-emergence, postemergence, 0 to 100 scale, 0 no effect, 100 complete control
[11] = pre-emergence, Preemergence, 0 to 100 scale where 0 is no effect and 100 is complete control

SMILES | pest or weed control at 125 g/ha [1, 10] | pest or weed control at 500 g/ha ([1]; post-emergence, Postemergence) | pest or weed control at 125 g/ha [1, 11] | pest or weed control at 500 g/ha ([1]; pre-emergence, Preemergence) | pest or weed control at 125 g/ha [2, 10] | pest or weed control at 500 g/ha ([2]; post-emergence, Postemergence) | pest or weed control at 125 g/ha [2, 11] | pest or weed control at 500 g/ha ([2]; pre-emergence, Preemergence) | plant injury at 125 g/ha [3, 10] | plant injury at 500 g/ha ([3]; post-emergence, Postemergence) | plant injury at 125 g/ha [3, 11] | plant injury at 500 g/ha ([3]; pre-emergence, Preemergence) | Corn plant response rating (crop injury, 0 = no effect, 100 = complete kill) at 125 g/ha [4, 10] | Corn plant response rating (crop injury, 0 = no effect, 100 = complete kill) at 500 g/ha ([4]; post-emergence, Postemergence) | Corn plant response rating (crop injury, 0 = no effect, 100 = complete kill) at 125 g/ha [4, 11] | Corn plant response rating (crop injury, 0 = no effect, 100 = complete kill) at 500 g/ha ([4]; pre-emergence, Preemergence) | pest or weed control at 125 g/ha [5, 10] | pest or weed control at 500 g/ha ([5]; post-emergence, Postemergence) | pest or weed control at 125 g/ha [5, 11] | pest or weed control at 500 g/ha ([5]; pre-emergence, Preemergence) | also measured
FC(F)(F)c1nccc(-c2ccccc2Oc2ncc(Br)cn2)n1 [Compound 21, 4-[2-[(5-bromo-2-pyrimidinyl)oxy]phenyl]-2-(trifluoromethyl)pyrimidine] | 0% | 60% | 70% | 100% | 0% | 60% | 0% | 50% | 0% | 0% | 0% | 0% | 0% | 40% | 0% | 0% | 80% | 100% | 30% | 90% | pest or weed control at 250 g/ha [6]: 0%; pest or weed control at 250 g/ha [7]: 0%; pest or weed control at 250 g/ha [8]: 0%; plant injury at 250 g/ha [9]: 0%
Cc1ccc(Oc2ncc(Cl)cn2)c(-c2ccc(C(F)(F)F)nc2)c1 [Compound 22, 5-chloro-2-[4-methyl-2-[6-(trifluoromethyl)-3-pyridinyl]phenoxy]pyrimidine] | 0% | 0% | 0% | 0% | 0% | 0% | 0% | 0% | 0% | 0% | 0% | 0% | 0% | 0% | 0% | 0% | 0% | 0% | 0% | 0% | pest or weed control at 250 g/ha [6]: 0%; pest or weed control at 250 g/ha [7]: 0%; pest or weed control at 250 g/ha [8]: 0%; plant injury at 250 g/ha [9]: 0%
Clc1ccc(-c2c(Cl)cccc2Oc2ncc(Cl)cn2)nc1 [Compound 23, 5-chloro-2-[3-chloro-2-(5-chloro-2-pyridinyl)phenoxy]pyrimidine] | 10% | 70% | 20% | 70% | 0% | 50% | 0% | 30% | 0% | 0% | 0% | 0% | 10% | 20% | 0% | 0% | 70% | 100% | 50% | 90% | pest or weed control at 1000 g/ha ([1]; post-emergence, Postemergence): 70%; pest or weed control at 1000 g/ha ([1]; pre-emergence, Preemergence): 100%; pest or weed control at 1000 g/ha ([2]; post-emergence, Postemergence): 50%; pest or weed control at 1000 g/ha ([2]; pre-emergence, Preemergence): 40%; plant injury at 1000 g/ha ([3]; post-emergence, Postemergence): 0%; plant injury at 1000 g/ha ([3]; pre-emergence, Preemergence): 0%; Corn plant response rating (crop injury, 0 = no effect, 100 = complete kill) at 1000 g/ha ([4]; post-emergence, Postemergence): 20%; Corn plant response rating (crop injury, 0 = no effect, 100 = complete kill) at 1000 g/ha ([4]; pre-emergence, Preemergence): 0%; pest or weed control at 1000 g/ha ([5]; post-emergence, Postemergence): 100%; pest or weed control at 1000 g/ha ([5]; pre-emergence, Preemergence): 100%; pest or weed control at 250 g/ha [6]: 60%; pest or weed control at 250 g/ha [7]: 0%; pest or weed control at 250 g/ha [8]: 40%; plant injury at 250 g/ha [9]: 0%
